Experimental data taken from paper PMC10582583, “The novel cyclophilin inhibitor C105SR reduces hepatic ischaemia–reperfusion injury via mitoprotection” (JHEP Reports, 2023).

Legend:
CypD = CypD (Homo sapiens, UniProt P30405); test: CypD PPIase activity, chymotrypsin-coupled assay; type: biochemical; settings: Table 1
[1] = tested on: isolated mouse liver mitochondria; test: Calcium retention capacity (CRC) assay in isolated liver mitochondria; type: biochemical; settings: for maximal mitochondrial CRC, diastereoisomer vs racemic mixture: Fig. 2E; for maximal mitochondrial CRC: compound at 100 μM (Fig. 1C), basal 160 ± 8; for EC50: isolated mouse liver mitochondria
AML-12 cells [2] = test: mPTP opening, CoCl2-calcein AM fluorescence-quenching assay, hypoxia/reoxygenation; type: cell-based, mouse; settings: for prevention of mPTP opening (loss of calcein fluorescence): 1 μM, 4 h hypoxia, 1 h reoxygenation
Experimental: We next evaluated the ability of compounds C105SR and C110SR to inhibit mPTP opening in cells. The hepatocyte cell line AML-12 was subjected to 4 h of hypoxia followed by 1 h of reoxygenation and mPTP opening was monitored using the CoCl2-calcein-acetoxymethyl ester (AM) fluorescence-quenching method.[19] Calcein-AM is a membrane permeable fluorophore which passively diffuses in all subcellular compartments including mitochondria. In the cell, the AM group of the fluorophore is cleaved by ubiquitous intracellular esterases, generating a hydrophilic product that is retained within the cell. The cells are then loaded with the divalent cobalt cation (Co^2+), which quenches calcein fluorescence in all subcellular compartments except the mitochondrial matrix, because the inner mitochondrial membrane is impermeable to cobalt. However, when mPTP is open, cobalt enters mitochondria and quenches mitochondrial calcein fluorescence. […]
(§1) Hypoxia/reoxygenation (H/R) in vitro model. AML-12 mouse hepatocyte line was obtained from American Type Culture Collection (ATCC) and maintained in DMEM/F12 culture medium at 37°C with 5% CO2. HepaRG human hepatocyte line was obtained from American Type Culture Collection (ATCC) and maintained in William’S E culture medium at 37°C with 5% CO2.When indicated, cells were incubated in phosphate buffered saline at 37°C in a hypoxic chamber filled with 94% N2, 1% O2, 5% CO2 for 4 h to mimic ischemic conditions. Then, cells were transferred to a CO2 incubator at 37°C in regular DMEM/F12 culture medium for 1 or 2 h under normoxic conditions (74% N2, 21% O2, 5% CO2). SMCypIs or vehicle (DMSO) were added during the hypoxia period, during the reoxygenation period, or during both. CsA and ALV were used as positive controls for hepatic protection against H/R injury.
Monitoring of mPTP opening. mPTP opening was monitored in AML-12 cells using the CoCl2-calcein AM fluorescence-quenching assay. Cells were loaded with 1 µM calcein-AM (green) for 20 min. Then, 1 mM CoCl2 was added and cells were incubated for another 10 min. Cells were washed and subjected to 4 h of hypoxia followed by 1 h of reoxygenation. Calcein fluorescence was measured using a spectrofluorimeter at excitation and emission wavelengths of 485 nm and 535 nm, respectively. Images were acquired using a standard inverted fluorescence microscope (Zeiss Axio, […]
media during the entire H/R period. Images shown are representative images of 12-18 images. […]
Optical density of purple formazan product was measured at 550 nm. […]

[3] = tested on: isolated mouse liver mitochondria; test: Ca2+-induced mitochondrial swelling assay; type: biochemical; settings: energised isolated mouse liver mitochondria
AML-12 cells [4] = test: LDH release, hypoxia/reoxygenation; type: cell-based, mouse; settings: 0.5 μM
Experimental: As expected, cells subjected to hypoxia/reoxygenation were characterised by greater LDH release and reduced cell viability as compared to untreated controls (Fig. 4A and 4B). […]
as §1, with “injury. […]” for “injury.”
Cell viability assays. Lactate dehydrogenase (LDH) release in culture medium was assessed using the commercially non-radioactive CytoTox-96 kit (Promega, Madison, Wisconsin) following the manufacturer’s instructions. Briefly, cell culture media were collected and the LDH activity was determined by measuring absorbance at 491 nm with a spectrometer (Multiskan skyHigh). For 3-(4,5-dimethylthiazol-2-yl)-2,5-diphenyltetrazolium bromide (MTT) assay, cells were incubated with a solution of MTT (0.5 mg/mL) for 2 h at 37°C. The medium was then removed and 50 µL DMSO was added to each well. Optical density of purple formazan product was measured at 550 nm. Cell viability was expressed as a percentage of the untreated control.

Chain of CypD (P30405 30-207): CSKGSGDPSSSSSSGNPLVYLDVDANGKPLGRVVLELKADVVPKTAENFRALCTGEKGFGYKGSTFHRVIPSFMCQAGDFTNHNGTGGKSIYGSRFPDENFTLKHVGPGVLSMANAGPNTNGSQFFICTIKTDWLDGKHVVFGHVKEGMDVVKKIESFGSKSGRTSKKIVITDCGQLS

Row | IC50 (CypD) | Compound | further results
1 | 400 ± 190 nM | CSc1ccccc1C1CCCN1C(=O)C(NC(=O)NCc1cccc2[nH]ncc12)c1ccccc1 (stereo not shown) [Compound C178, 1-((1H-indazol-4-yl)methyl)-3-(2-(2-(2-(methylthio)phenyl)pyrrolidin-1-yl)-2-oxo-1-phenylethyl)urea] | –
2 | 1050 ± 720 nM | COc1ccc(OC)c(C(NC(=O)NCc2cccc3[nH]ccc23)C(=O)N2CCCC2c2ccccc2SC)c1 (stereo not shown) [Compound C170, 1-((1H-indol-4-yl)methyl)-3-(1-(2,5-dimethoxyphenyl)-2-(2-(2-(methylthio)phenyl)pyrrolidin-1-yl)-2-oxoethyl)urea] | –
3 | 260 ± 70 nM | CSc1ccccc1C1CCCN1C(=O)C(NC(=O)NCc1cccc2c1OCCO2)c1ccccc1 (stereo not shown) [Compound C129, 1-((2,3-dihydrobenzo[b][1,4]dioxin-5-yl)methyl)-3-(2-(2-(2-(methylthio)phenyl)pyrrolidin-1-yl)-2-oxo-1-phenylethyl)urea] | –
4 | 340 ± 130 nM | COc1ccc(OC)c(C(NC(=O)NCc2cccc3[nH]ncc23)C(=O)N2CCCC2c2ccccc2SC)c1 (stereo not shown) [Compound C171, 1-((1H-indazol-4-yl)methyl)-3-(1-(2,5-dimethoxyphenyl)-2-(2-(2-(methylthio)phenyl)pyrrolidin-1-yl)-2-oxoethyl)urea] | –
5 | 490 ± 320 nM | CCNC(=O)N1CCCc2c(CNC(=O)NC(C(=O)N3CCCC3c3ccccc3SC)c3ccccc3)cccc21 (stereo not shown) [Compound C177, N-ethyl-5-((3-(2-(2-(2-(methylthio)phenyl)pyrrolidin-1-yl)-2-oxo-1-phenylethyl)ureido)methyl)-3,4-dihydroquinoline-1(2H)-carboxamide] | –
6 | 210 ± 70 nM | CSc1ccccc1C1CCCN1C(=O)C(NC(=O)NCc1cccc2[nH]ccc12)c1ccccc1 (stereo not shown) [Compound C172, 1-((1H-indol-4-yl)methyl)-3-(2-(2-(2-(methylthio)phenyl)pyrrolidin-1-yl)-2-oxo-1-phenylethyl)urea] | –
7 | 420 ± 100 nM | CSc1ccccc1C1CCCN1C(=O)C(NC(=O)NCc1cccc2ccsc12)c1ccccc1 (stereo not shown) [Compound C142, 1-(benzo[b]thiophen-7-ylmethyl)-3-(2-(2-(2-(methylthio)phenyl)pyrrolidin-1-yl)-2-oxo-1-phenylethyl)urea] | –
8 | 590 ± 190 nM | CSc1ccccc1C1CCCN1C(=O)C(NC(=O)NN1Cc2ccc(N)cc2C1)c1ccccc1 (stereo not shown) [Compound C185, 1-(5-aminoisoindolin-2-yl)-3-(2-(2-(2-(methylthio)phenyl)pyrrolidin-1-yl)-2-oxo-1-phenylethyl)urea] | –
9 | 310 ± 160 nM | CSc1ccccc1C1CCCN1C(=O)C(NC(=O)NCc1cccc2c1CCN2)c1ccccc1 (stereo not shown) [Compound C144, 1-(indolin-4-ylmethyl)-3-(2-(2-(2-(methylthio)phenyl)pyrrolidin-1-yl)-2-oxo-1-phenylethyl)urea] | maximal mitochondrial CRC [1]: 422 ± 44 nmol Ca2+/mg of mitochondrial; EC50 [1]: 11760 ± 10 nM; IC50 [3]: 11570 ± 10 nM

Continued, molecule first:

Row | Compound | IC50 (CypD) | further results
10 | CSc1ccccc1C1CCCN1C(=O)C(NC(=O)NC(C)c1ccc(N)c(F)c1)c1ccccc1 (stereo not shown) [Compound C101, 1-(1-(4-amino-3-fluorophenyl)ethyl)-3-(2-(2-(2-(methylthio)phenyl)pyrrolidin-1-yl)-2-oxo-1-phenylethyl)urea] | 400 ± 190 nM | –
11 | COc1ccc(Br)cc1C(NC(=O)NCc1ccc2c(c1)CCCN2)C(=O)N1CCCC1c1cccc2ccsc12 (stereo not shown) [Compound C105, 1-(2-(2-(benzo[b]thiophen-7-yl)pyrrolidin-1-yl)-1-(5-bromo-2-methoxyphenyl)-2-oxoethyl)-3-((1,2,3,4-tetrahydroquinolin-6-yl)methyl)urea] | – | maximal mitochondrial CRC, diastereoisomer vs racemic mixture [1]: 407 ± 13 nmol Ca2+/mg of mitochondrial; maximal mitochondrial CRC [1]: 407 ± 13 nmol Ca2+/mg of mitochondrial; EC50 [1]: 2370 ± 110 nM; prevention of mPTP opening (loss of calcein fluorescence) (AML-12 cells [2]): not; IC50 [3]: 690 ± 50 nM
12 | CSc1ccccc1C1CCCN1C(=O)C(NC(=O)NCc1ccc(N)cc1)C1CCCCC1 (stereo not shown) [Compound C71, 1-(4-aminobenzyl)-3-(1-cyclohexyl-2-(2-(2-(methylthio)phenyl)pyrrolidin-1-yl)-2-oxoethyl)urea] | 790 ± 210 nM | –
13 | CSc1ccccc1C1CCCN1C(=O)C(NC(=O)NCC1CC2(CNC2)C1)c1ccccc1 (stereo not shown) [Compound C119, 1-((2-azaspiro[3.3]heptan-6-yl)methyl)-3-(2-(2-(2-(methylthio)phenyl)pyrrolidin-1-yl)-2-oxo-1-phenylethyl)urea] | 150 ± 30 nM | –
14 | COc1cc(OC)c(C(NC(=O)NCc2ccc(N)cc2)C(=O)N2CCCC2c2cccc3ccsc23)cc1Br (stereo not shown) [Compound C112, 1-(4-aminobenzyl)-3-(2-(2-(benzo[b]thiophen-7-yl)pyrrolidin-1-yl)-1-(5-bromo-2,4-dimethoxyphenyl)-2-oxoethyl)urea] | 480 ± 40 nM | –
15 | COc1ccc(Br)cc1C(NC(=O)NCc1ccc(N)cc1)C(=O)N1CCCC1c1cccc2ccsc12 (stereo not shown) [Compound C110, 1-(4-aminobenzyl)-3-(2-(2-(benzo[b]thiophen-7-yl)pyrrolidin-1-yl)-1-(5-bromo-2-methoxyphenyl)-2-oxoethyl)urea] | 100 ± 20 nM | maximal mitochondrial CRC, diastereoisomer vs racemic mixture [1]: 400 ± 27 nmol Ca2+/mg of mitochondrial; maximal mitochondrial CRC [1]: 400 ± 27 nmol Ca2+/mg of mitochondrial; EC50 [1]: 2830 ± 90 nM; prevention of mPTP opening (loss of calcein fluorescence) (AML-12 cells [2]): not; IC50 [3]: 370 ± 6 nM
16 | CSc1ccccc1C1CCCN1C(=O)C(NC(=O)NCc1ccc(N)cc1)c1ccccc1 (stereo not shown) [Compound C31] | 200 ± 100 nM | inhibition of cell death (AML-12 cells [4]): not effective; EC50 [1]: 9090 ± 210 nM; inhibition of mPTP opening (AML-12 cells [2]; 0.5 μM): not effective; IC50 [3]: 1300 ± 50 nM
17 | COc1ccc(OC)c(C(NC(=O)NCc2ccc(N)cc2)C(=O)N2CCCC2c2cccc3ccsc23)c1 (stereo not shown) [Compound C108, 1-(4-aminobenzyl)-3-(2-(2-(benzo[b]thiophen-7-yl)pyrrolidin-1-yl)-1-(2,5-dimethoxyphenyl)-2-oxoethyl)urea] | 480 ± 230 nM | –
18 | COc1ccc(Br)cc1C(NC(=O)NC(C)c1ccc(N)c(F)c1)C(=O)N1CCCC1c1ccccc1SC (stereo not shown) [Compound C123, 1-(1-(4-amino-3-fluorophenyl)ethyl)-3-(1-(5-bromo-2-methoxyphenyl)-2-(2-(2-(methylthio)phenyl)pyrrolidin-1-yl)-2-oxoethyl)urea] | 1260 ± 370 nM | –
